This note sets out measurements from ChEMBL document CHEMBL5500422, “New Horizons of Synthetic Lethality in Cancer: Current Development and Future Perspectives” (J Med Chem, 2024).

Data set [1] concerns the target T1, DNA repair protein RAD52 homolog (Homo sapiens, UniProt P43351).
T1 sequence (P43351 whole entry): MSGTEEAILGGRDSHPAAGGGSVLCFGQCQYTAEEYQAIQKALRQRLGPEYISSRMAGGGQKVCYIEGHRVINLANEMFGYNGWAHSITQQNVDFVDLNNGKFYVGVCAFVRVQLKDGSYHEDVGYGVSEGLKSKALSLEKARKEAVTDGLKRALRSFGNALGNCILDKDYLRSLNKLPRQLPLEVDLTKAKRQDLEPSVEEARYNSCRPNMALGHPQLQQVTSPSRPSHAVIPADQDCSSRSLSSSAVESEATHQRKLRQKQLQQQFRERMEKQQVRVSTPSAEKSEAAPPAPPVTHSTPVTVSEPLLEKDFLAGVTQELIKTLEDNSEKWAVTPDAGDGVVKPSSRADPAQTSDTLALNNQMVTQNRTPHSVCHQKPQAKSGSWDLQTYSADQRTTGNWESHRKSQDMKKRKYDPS
The data set can be described thus: Inhibition of RAD52 (unknown origin) by FRET analysis.

Data set [2] deals with LoVo. The data set can be described thus: Antiproliferative activity against human LoVo cells assessed as reduction in cell viability measured for 48 hrs byT assay. It is filed as functional, cell-based.
Data set [3] in a line: Intrinsic clearance in human liver microsomes. It counts as ADME, Microsome. Background: Liver microsomes are a subcellular fraction often used to study metabolism.
For data set [4], the system named is HEK293. The data set can be described thus: Antiproliferative activity against HEK293 cells assessed as inhibition of cell growth incubated for 48 hrs by CCK8 assay. It counts as functional, cell-based. As to conditions: Homo sapiens, HEK293, 48 h. In general terms: Tetrazolium assays rely on reduction of a dye to a coloured formazan, in cell work by metabolically active cells.

Data set [5] addresses von Hippel-Lindau disease tumor suppressor/SWI/SNF-related matrix-associated actin-dependent regulator of chromatin subfamily A member 2 (Homo sapiens) (UniProt P51531+P40337). In words: PROTAC activity at VHL/SMARCA2 in human NCI-H838 cells assessed as induction of SMARCA2 degradation at 0.001 to 1000 nM incubated for 24 hrs by Western blotting analysis relative to control. It counts as cell-based. As to conditions: dose 0.001-1000 nM. A general note: Immunoblotting shows a protein as a band on a membrane.

In data set [6] the target is von Hippel-Lindau disease tumor suppressor/SWI/SNF-related matrix-associated actin-dependent regulator of chromatin subfamily A member 4 (Homo sapiens) (UniProt P51532+P40337). The data set can be described thus: PROTAC activity at VHL/SMARCA4 in human MV4-11 cells assessed as induction of SMARCA4 degradation by measuring maximal efficacy incubated for 18 hrs by Western blotting analysis relative to control. It counts as cell-based.

A short description of data set [7]: Intrinsic clearance in mouse liver microsomes. It is filed as ADME, Microsome.
Data set [8] concerns the target DNA-dependent protein kinase catalytic subunit (Homo sapiens, UniProt P78527).
Description: Inhibition of DNA-PK in human HCT-116 cells measured after 1 hr by Bradford assay
Data set [9] deals with T2, Ubiquitin carboxyl-terminal hydrolase 1 (Homo sapiens, UniProt O94782).
T2 sequence (O94782 whole entry): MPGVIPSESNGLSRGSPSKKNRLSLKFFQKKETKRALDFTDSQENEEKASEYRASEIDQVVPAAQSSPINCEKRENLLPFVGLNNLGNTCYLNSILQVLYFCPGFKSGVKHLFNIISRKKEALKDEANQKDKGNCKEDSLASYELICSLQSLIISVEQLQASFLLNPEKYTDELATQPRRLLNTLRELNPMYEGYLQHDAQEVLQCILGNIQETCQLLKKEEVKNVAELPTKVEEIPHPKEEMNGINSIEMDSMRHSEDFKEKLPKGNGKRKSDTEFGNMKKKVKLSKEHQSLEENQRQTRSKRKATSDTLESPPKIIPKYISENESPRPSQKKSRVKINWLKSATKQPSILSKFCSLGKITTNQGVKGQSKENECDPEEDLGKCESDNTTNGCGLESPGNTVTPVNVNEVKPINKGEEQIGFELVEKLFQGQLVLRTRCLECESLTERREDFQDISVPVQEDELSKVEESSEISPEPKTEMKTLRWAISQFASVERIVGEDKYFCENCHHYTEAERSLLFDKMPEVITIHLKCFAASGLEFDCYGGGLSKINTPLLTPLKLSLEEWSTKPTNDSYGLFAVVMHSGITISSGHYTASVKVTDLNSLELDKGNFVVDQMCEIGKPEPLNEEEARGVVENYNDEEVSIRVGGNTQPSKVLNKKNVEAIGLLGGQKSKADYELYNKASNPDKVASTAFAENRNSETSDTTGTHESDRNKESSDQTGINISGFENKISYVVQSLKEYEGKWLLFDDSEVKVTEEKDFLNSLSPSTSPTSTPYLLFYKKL
The data set can be described thus: Inhibition of human recombinant USP1 expressed in baculovirus expressed in Bac-to-Bac baculovirus expression system.

Data set [10] can be described thus: Antiproliferative activity against human UWB1289 cells harboring BRCA1 assessed inhibition of cell growth incubated for 48 hrs by MTT assay. It is filed as functional, cell-based. As to conditions: UWB1289, 48 h.

Chain of DNA-dependent protein kinase catalytic subunit (P78527 whole entry): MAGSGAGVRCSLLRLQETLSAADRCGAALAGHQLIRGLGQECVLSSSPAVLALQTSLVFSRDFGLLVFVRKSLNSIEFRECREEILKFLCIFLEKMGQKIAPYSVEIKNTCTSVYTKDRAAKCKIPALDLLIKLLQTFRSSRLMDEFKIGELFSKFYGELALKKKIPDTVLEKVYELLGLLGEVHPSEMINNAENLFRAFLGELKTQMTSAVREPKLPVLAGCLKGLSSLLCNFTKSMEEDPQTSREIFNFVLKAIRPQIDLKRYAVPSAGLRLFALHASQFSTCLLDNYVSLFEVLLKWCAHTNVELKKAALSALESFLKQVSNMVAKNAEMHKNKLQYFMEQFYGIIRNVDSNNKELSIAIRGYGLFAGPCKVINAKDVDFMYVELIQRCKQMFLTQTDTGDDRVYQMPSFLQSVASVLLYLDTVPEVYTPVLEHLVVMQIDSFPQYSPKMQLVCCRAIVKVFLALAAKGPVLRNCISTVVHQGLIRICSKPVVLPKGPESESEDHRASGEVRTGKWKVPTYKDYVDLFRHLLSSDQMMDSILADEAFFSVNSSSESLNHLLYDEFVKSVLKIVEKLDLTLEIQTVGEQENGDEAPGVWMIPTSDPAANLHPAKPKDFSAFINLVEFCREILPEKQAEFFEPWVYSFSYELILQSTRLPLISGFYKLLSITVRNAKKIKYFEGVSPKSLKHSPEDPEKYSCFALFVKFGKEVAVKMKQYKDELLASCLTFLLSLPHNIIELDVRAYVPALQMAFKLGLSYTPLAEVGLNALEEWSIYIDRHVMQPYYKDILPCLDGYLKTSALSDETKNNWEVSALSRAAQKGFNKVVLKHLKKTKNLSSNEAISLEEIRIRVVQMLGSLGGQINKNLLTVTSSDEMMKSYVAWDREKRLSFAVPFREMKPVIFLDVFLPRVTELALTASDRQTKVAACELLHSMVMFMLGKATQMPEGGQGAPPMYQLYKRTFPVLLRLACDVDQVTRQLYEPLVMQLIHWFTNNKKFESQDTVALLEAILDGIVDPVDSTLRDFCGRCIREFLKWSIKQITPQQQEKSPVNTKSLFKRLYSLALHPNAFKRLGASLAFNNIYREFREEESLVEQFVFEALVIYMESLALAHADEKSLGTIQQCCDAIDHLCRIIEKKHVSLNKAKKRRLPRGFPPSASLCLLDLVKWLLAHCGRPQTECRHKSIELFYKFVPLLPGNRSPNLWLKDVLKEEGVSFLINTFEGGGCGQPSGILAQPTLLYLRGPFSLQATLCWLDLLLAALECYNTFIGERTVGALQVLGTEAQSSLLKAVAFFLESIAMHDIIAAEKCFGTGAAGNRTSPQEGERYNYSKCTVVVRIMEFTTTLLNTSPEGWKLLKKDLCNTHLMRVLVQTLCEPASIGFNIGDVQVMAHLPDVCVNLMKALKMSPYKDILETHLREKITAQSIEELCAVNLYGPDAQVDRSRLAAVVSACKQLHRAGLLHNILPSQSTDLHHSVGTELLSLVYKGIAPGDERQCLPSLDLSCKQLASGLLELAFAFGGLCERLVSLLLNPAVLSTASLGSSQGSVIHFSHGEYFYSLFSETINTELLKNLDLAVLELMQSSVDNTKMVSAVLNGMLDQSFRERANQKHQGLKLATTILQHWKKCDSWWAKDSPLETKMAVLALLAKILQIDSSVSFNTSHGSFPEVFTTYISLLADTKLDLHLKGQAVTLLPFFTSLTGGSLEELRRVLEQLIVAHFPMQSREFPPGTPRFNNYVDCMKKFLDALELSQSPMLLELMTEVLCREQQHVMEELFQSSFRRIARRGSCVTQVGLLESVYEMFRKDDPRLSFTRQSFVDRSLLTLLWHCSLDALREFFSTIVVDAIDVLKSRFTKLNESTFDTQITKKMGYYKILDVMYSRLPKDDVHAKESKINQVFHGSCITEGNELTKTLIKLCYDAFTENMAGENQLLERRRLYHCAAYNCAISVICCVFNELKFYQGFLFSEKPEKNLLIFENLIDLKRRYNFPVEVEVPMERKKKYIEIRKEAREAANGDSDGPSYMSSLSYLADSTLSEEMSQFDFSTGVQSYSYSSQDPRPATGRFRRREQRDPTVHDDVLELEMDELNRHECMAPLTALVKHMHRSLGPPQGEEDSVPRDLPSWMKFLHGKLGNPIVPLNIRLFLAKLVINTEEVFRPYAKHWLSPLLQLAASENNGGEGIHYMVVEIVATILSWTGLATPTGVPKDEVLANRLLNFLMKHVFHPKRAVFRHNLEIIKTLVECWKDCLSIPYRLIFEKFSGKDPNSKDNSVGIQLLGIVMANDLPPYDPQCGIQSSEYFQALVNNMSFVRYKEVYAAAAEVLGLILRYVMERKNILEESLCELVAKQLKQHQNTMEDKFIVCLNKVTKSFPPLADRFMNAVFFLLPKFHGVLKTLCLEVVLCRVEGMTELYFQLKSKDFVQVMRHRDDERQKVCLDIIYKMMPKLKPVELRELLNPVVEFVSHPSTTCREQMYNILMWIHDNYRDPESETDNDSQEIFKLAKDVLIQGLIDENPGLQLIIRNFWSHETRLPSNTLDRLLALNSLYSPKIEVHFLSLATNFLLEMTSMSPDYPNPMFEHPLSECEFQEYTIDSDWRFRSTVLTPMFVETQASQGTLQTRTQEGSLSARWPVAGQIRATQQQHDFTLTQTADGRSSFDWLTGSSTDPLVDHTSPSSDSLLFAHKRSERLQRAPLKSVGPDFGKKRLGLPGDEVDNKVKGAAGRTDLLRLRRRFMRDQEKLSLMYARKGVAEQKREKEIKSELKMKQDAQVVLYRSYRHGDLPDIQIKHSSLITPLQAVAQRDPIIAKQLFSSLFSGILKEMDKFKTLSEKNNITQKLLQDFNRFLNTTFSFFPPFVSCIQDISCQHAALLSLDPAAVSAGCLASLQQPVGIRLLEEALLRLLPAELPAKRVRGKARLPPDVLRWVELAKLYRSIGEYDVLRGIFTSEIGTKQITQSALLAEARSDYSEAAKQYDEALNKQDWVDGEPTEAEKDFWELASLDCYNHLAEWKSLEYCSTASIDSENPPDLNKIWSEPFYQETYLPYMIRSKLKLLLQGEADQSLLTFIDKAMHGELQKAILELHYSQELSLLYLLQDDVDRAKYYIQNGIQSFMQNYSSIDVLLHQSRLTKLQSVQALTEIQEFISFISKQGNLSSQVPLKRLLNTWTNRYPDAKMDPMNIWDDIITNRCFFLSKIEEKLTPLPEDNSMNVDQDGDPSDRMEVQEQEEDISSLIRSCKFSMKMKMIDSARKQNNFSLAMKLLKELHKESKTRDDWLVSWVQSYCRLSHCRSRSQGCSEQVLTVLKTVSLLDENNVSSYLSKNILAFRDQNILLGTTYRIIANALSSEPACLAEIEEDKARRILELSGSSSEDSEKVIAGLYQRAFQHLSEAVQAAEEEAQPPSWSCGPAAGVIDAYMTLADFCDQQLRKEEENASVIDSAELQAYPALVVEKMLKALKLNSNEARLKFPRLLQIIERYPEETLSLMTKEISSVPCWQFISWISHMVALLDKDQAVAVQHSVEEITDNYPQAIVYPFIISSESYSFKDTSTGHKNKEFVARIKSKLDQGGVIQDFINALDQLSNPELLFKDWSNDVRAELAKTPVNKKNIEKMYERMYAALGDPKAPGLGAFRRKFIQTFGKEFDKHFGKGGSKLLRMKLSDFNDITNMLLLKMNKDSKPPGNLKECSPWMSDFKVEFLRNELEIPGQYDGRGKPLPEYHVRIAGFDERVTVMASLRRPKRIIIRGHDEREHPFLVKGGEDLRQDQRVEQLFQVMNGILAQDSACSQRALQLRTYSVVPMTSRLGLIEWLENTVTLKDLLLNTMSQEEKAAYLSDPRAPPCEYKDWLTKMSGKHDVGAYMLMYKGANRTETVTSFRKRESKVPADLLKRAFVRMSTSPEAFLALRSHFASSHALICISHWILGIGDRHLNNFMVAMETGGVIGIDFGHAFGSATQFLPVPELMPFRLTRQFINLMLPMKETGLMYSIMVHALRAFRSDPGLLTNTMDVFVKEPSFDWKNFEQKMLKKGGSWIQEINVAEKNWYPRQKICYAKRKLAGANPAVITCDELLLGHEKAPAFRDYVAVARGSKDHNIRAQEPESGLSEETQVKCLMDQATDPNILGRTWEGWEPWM

In data set [1], `O=C(Cn1cccc([N+](=O)[O-])c1=O)c1c[nH]c2ccccc12` displayed a half-inhibitory concentration (IC50) of 2000 nM.
As for `Nc1nn2cc(F)cnc2c1C(=O)Nc1cncc(F)c1N1CCC(C(=O)N2CCN(C3COC3)CC2)CC1` [M4344], the IC50 in data set [2] is 86 nM.
Take `Cc1ncc(Cn2c(=O)c3cc(S(=O)(=O)NC4(C)CC4)ccc3n(CC3CC3)c2=O)s1`: the CLH in data set [3] amounted to 78 µL/min/mg.
On to `C[C@@H]1COCCN1c1cc(N=[S@@](C)(=O)C2CC2)nc(-c2ccnc(N)c2)n1`, for which, in data set [4], the IC50 amounted to 7900 nM.
`COc1ccccc1NS(=O)(=O)c1cc(C(=O)O)ccc1C`: inhibition in data set [1] was half-maximal at 2000 nM (IC50).
In the case of `Cc1ncsc1-c1ccc([C@H](CC[C@H](C)CCN2CCC(c3ccc4c(c3)n(C3CCCC3)c3nc(=O)c5c(Br)cccc5n43)CC2)NC(=O)[C@@H]2C[C@@H](O)CN2C(=O)[C@@H](NC(=O)C2(F)CC2)C(C)(C)C)cc1`, the maximal effect (Emax) in data set [5] came out at 81%; in data set [6] it was 67%.
In turn, `Cn1c(=O)c2cc(S(=O)(=O)NC3(C)CC3)ccc2n(C)c1=O` came in with a CLH in [7] of 211 µL/min/mg.
On to `CC(C)NCCOc1ncc(-c2cc3c4c(cnc3cc2F)N(C)C(=O)C42CCC2)cc1NS(C)(=O)=O`, for which half-maximal inhibition in data set [8] (IC50) was put at 0.89 nM.
As to `CC(C)c1ccccc1-c1ncc2[nH]c(=O)n(Cc3ccc(-c4nc(C(F)(F)F)cn4C)cc3)c2n1`, the IC50 in data set [9] is 4.1 nM.
As for `Cc1cccc(N(C)C(=O)[C@@H]2[C@H](O)CCN2c2nc(C)cc(C(F)(F)F)c2C#N)c1`, in [10], the IC50 worked out at 7.9 nM.

The term IC50 denotes the midpoint of a concentration-inhibition curve. Usually Emax stands for the maximal effect, on the per cent scale that the assay sets.
